pEC50: −log10 of the molar value.
What was measured:
Assay type in all cases: cell-based, Murine
[1] = molecular target: EGFR wild type Ba/F3 cell line (Homo sapiens, UniProt P00533, cells depend on it, form not given); experiment: Ba/F3 cell proliferation MTS assay, EGFR wild type; conditions: 72 hours
[2] = molecular target: EGFR InsGY Ba/F3 cell line (Homo sapiens, UniProt P00533, DELINS770-770GY, cells depend on it); experiment: Ba/F3 cell proliferation MTS assay, EGFR InsGY; conditions: EGFR InsGY (D770delinsGY) Ba/F3 cells, 72 hours
Description: (§1) Different EGFR exon 20 insertion mutations were introduced via site directed mutagenesis into full length EGFR using the Quick Change Site-Directed Mutagenesis kit (Stratagene; La Jolla, Calif.) according to the manufacturer's instructions. All constructs were confirmed by DNA sequencing. The constructs were shuttled into the retroviral vector JP1540 using the BD Creator™ System (BD Biosciences). […] Stable clones were obtained by selection in puromycin (2 μg/ml) and growth in IL-3 free media.
(§2) Murine Ba/F3 cells engineered to express mutant and wild type EGFR or HER2 protein were used to perform single drug screens. Cell viability was assessed after 72 hours of compound exposure using the colorimetric cell proliferation MTS assay kit (Promega).
(§3) The curves were fitted using a non-linear regression model with a sigmoidal dose response.

[3] = molecular target: EGFR InsSVD Ba/F3 cell line (Homo sapiens, UniProt P00533, DUP768-770, cells depend on it); experiment: Ba/F3 cell proliferation MTS assay, EGFR InsSVD; conditions: EGFR InsSVD (D770_N771insSVD) Ba/F3 cells, 72 hours
Description: as §1, §2, §3

[4] = molecular target: EGFR InsASV Ba/F3 cell line (Homo sapiens, UniProt P00533, DUP767-769, cells depend on it); experiment: Ba/F3 cell proliferation MTS assay, EGFR InsASV; conditions: EGFR InsASV (V769_D770insASV) Ba/F3 cells, 72 hours
Description: as §1, §2, §3

[5] = molecular target: HER2 wild type Ba/F3 cell line (Homo sapiens, UniProt P04626); experiment: Ba/F3 cell proliferation MTS assay, HER2 wild type; conditions: HER2 wild type Ba/F3 cells, 72 hours
Description: as §2, §3

[6] = molecular target: HER2 InsYVMA Ba/F3 cell line (Homo sapiens, UniProt P04626, DUP772-775, cells depend on it); experiment: Ba/F3 cell proliferation MTS assay, HER2 InsYVMA; conditions: 72 hours;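 also: murine Ba/F3 cells engineered to carry mutant HER2, viability read colorimetrically by MTS after 72 h of exposure, EC50 from sigmoidal non-linear regression of dose response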
Chain of HER2 InsYVMA Ba/F3 cell line (P04626 with tags, fused parts or gaps DUP772-775): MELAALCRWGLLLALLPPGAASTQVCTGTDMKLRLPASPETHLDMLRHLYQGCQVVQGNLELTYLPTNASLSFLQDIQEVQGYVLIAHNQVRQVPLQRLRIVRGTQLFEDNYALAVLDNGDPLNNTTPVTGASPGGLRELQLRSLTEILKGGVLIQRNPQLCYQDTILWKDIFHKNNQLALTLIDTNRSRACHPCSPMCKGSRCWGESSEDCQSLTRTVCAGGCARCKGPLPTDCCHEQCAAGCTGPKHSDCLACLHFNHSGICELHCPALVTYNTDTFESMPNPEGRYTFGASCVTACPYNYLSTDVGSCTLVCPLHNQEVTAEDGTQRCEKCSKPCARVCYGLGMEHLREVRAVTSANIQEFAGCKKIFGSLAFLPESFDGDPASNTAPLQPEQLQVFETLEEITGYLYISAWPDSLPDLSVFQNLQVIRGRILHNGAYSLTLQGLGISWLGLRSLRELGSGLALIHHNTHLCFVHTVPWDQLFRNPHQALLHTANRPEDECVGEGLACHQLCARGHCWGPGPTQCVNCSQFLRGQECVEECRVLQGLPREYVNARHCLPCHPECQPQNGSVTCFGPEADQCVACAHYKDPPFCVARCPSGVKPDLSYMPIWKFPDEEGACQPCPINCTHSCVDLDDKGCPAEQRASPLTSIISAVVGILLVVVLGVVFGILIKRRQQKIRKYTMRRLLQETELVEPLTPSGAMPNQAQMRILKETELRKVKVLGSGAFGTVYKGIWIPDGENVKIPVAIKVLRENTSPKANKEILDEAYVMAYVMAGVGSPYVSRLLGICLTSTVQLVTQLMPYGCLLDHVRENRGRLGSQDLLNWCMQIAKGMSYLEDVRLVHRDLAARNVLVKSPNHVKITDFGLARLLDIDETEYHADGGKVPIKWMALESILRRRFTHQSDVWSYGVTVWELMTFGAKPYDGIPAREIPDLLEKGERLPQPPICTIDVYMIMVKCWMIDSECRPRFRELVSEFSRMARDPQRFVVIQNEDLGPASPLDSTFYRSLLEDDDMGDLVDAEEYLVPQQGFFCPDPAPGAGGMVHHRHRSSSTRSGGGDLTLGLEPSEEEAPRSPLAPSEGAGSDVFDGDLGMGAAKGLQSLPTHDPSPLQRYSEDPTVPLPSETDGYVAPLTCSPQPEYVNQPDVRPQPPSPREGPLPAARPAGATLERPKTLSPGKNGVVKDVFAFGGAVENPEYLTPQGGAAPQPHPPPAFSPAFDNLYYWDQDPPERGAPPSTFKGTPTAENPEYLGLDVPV
Description: as §2, §3

Chain of EGFR InsSVD Ba/F3 cell line (P00533 with tags, fused parts or gaps DUP768-770): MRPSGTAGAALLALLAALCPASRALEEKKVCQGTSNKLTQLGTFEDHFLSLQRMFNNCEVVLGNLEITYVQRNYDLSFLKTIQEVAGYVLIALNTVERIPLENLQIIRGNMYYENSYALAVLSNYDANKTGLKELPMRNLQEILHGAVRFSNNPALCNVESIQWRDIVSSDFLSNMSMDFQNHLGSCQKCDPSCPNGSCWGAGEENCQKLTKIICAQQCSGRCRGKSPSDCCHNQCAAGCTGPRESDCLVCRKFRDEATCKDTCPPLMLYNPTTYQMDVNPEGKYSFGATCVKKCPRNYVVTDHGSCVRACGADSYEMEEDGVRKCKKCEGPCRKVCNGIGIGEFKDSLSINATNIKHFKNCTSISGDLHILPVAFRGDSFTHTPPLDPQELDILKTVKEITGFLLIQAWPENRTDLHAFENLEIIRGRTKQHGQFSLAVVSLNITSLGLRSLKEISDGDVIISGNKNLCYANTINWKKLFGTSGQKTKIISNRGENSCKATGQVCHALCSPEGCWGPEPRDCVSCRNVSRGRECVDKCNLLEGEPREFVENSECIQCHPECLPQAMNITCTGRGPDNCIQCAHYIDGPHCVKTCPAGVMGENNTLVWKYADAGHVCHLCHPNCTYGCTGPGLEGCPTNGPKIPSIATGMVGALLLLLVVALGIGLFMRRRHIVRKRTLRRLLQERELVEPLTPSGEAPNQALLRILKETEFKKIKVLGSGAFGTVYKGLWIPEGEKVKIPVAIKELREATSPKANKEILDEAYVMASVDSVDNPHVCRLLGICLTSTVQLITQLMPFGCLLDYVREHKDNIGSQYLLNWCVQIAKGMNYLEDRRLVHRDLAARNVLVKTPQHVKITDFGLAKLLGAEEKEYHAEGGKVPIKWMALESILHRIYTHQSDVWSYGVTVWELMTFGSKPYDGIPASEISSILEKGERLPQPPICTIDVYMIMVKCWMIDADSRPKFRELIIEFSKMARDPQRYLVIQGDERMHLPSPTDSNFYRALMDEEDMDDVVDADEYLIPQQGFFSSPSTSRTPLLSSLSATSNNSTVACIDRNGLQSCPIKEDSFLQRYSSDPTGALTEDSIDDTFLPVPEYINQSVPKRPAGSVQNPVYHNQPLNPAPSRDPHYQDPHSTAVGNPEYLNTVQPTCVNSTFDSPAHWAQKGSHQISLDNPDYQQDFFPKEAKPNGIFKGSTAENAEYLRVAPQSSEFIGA
Chain of HER2 wild type Ba/F3 cell line (P04626 whole entry, stated change not applied): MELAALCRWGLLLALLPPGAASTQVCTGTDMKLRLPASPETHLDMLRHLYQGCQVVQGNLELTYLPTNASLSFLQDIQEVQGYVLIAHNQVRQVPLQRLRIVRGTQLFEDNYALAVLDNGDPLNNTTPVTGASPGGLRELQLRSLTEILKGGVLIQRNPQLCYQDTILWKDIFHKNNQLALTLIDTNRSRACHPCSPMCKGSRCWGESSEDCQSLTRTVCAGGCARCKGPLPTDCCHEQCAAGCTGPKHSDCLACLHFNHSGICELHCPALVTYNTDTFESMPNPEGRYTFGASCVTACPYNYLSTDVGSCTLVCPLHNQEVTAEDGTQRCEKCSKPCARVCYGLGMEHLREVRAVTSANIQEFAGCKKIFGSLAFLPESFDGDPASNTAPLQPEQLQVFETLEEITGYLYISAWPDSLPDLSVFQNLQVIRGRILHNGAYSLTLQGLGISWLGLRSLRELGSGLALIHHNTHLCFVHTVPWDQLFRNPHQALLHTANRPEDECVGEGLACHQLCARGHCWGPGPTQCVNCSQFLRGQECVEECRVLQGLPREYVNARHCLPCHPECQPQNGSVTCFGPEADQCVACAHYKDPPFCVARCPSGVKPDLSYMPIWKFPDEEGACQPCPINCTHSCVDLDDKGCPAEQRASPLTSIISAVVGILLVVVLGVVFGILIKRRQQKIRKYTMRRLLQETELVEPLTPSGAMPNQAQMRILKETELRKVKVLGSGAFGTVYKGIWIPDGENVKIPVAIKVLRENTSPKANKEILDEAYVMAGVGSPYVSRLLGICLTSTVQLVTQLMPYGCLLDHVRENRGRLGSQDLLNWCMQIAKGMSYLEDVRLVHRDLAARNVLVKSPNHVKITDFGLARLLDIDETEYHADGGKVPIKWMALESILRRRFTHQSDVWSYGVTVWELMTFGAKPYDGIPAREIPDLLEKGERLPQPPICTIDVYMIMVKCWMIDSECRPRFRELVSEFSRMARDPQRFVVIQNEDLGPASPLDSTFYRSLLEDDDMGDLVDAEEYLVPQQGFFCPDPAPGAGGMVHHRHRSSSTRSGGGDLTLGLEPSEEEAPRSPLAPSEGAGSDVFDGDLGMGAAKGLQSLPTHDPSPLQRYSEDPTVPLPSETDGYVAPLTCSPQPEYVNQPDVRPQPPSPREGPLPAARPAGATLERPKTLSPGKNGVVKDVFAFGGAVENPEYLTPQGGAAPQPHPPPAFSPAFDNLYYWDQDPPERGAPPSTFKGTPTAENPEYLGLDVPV
Chain of EGFR InsGY Ba/F3 cell line (P00533 with tags, fused parts or gaps DELINS770-770GY): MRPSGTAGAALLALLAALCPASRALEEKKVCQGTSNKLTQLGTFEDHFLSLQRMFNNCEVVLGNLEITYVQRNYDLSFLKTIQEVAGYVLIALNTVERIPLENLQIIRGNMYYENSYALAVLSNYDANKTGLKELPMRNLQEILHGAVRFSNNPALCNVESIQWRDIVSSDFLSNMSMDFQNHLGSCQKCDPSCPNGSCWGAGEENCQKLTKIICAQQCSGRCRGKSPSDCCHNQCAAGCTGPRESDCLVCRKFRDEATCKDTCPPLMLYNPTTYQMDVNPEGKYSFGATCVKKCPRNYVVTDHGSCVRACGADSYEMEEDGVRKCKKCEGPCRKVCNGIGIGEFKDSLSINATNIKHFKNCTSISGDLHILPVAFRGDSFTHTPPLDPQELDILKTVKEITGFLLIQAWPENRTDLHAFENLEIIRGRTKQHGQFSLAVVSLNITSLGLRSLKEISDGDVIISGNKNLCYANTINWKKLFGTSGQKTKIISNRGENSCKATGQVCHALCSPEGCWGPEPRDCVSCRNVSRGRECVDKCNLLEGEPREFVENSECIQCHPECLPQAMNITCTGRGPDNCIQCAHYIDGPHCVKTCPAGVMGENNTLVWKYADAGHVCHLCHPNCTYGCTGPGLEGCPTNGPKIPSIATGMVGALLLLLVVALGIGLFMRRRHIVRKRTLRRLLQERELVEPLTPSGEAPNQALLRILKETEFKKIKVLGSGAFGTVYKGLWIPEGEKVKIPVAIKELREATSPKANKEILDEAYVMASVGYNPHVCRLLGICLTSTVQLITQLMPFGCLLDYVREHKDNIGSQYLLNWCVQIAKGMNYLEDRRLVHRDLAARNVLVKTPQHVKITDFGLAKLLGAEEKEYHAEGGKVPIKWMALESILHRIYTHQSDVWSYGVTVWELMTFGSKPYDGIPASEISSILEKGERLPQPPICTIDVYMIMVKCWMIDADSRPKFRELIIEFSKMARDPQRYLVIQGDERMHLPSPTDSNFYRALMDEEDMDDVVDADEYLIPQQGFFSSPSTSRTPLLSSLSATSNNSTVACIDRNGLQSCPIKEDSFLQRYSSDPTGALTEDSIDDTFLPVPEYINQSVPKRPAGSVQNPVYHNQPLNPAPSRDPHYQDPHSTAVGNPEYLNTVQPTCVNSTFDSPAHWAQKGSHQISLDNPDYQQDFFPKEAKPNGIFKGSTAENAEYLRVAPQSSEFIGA

SMILES	pEC50 [1]	pEC50 [2]	pEC50 [3]	pEC50 [4]	pEC50 [5]	pEC50 [6]
C=CC(=O)Nc1cccc(N(C(=O)OCc2ccc(Cl)cc2)c2ccnc(Nc3ccn(C)n3)n2)c1 [Compound I-8, 4-chlorobenzyl (3-acrylamidophenyl)(2-((1-methyl-1H-pyrazol-3-yl)amino)pyrimidin-4-yl)carbamate]	6.30 to 7.00	6.30 to 7.00	< 6.00	< 6.00	6.30 to 7.00	< 6.00
C=CC(=O)Nc1cccc(N(C(=O)O[C@H](C)c2ccc(F)cc2)c2ccnc(Nc3cnn(C)c3)n2)c1 [Compound I-15, (R)-1-(4-fluorophenyl)ethyl (3-acrylamidophenyl)(2-((1-methyl-1H-pyrazol-4-yl)amino)pyrimidin-4-yl)carbamate]	> 7.00	> 7.00	> 7.00	6.30 to 7.00	> 7.00	6.30 to 7.00
C=CC(=O)Nc1cccc(N(C(=O)OCc2ccccc2)c2ccnc(Nc3ccn(C)n3)n2)c1 [Compound I-1, benzyl (3-acrylamidophenyl)(2-((1-methyl-1H-pyrazol-3-yl)amino)pyrimidin-4-yl)carbamate]	> 7.00	> 7.00	> 7.00	6.30 to 7.00	> 7.00	> 7.00
C=CC(=O)Nc1cccc(N(C(=O)O[C@@H](C)c2ccc(F)cc2)c2ccnc(Nc3ccn(C)n3)n2)c1 [Compound I-16, (S)-1-(4-fluorophenyl)ethyl (3-acrylamidophenyl)(2-((1-methyl-1H-pyrazol-3-yl)amino)pyrimidin-4-yl)carbamate]	> 7.00	6.30 to 7.00	6.30 to 7.00	6.00 to 6.30	> 7.00	6.00 to 6.30
C=CC(=O)Nc1cccc(N(C(=O)OCc2ccc(Cl)cc2)c2ccnc(Nc3cnn(C)c3)n2)c1 [Compound I-9, 4-chlorobenzyl (3-acrylamidophenyl)(2-((1-methyl-1H-pyrazol-4-yl)amino)pyrimidin-4-yl)carbamate]	> 7.00	6.30 to 7.00	6.30 to 7.00	6.00 to 6.30	> 7.00	6.30 to 7.00
C=CC(=O)Nc1cccc(N(C(=O)OCc2ccc(F)nc2)c2ccnc(Nc3cnn(C)c3)n2)c1 [Compound I-13, (6-fluoropyridin-3-yl)methyl (3-acrylamidophenyl)(2-((1-methyl-1H-pyrazol-4-yl)amino)pyrimidin-4-yl)carbamate]	6.30 to 7.00	< 6.00	< 6.00	< 6.00	6.30 to 7.00	< 6.00
C=CC(=O)Nc1cccc(N(C(=O)OCc2ccc(F)cn2)c2ccnc(Nc3cnn(C)c3)n2)c1 [Compound I-11, (5-fluoropyridin-2-yl)methyl (3-acrylamidophenyl)(2-((1-methyl-1H-pyrazol-4-yl)amino)pyrimidin-4-yl)carbamate]	> 7.00	6.00 to 6.30	6.00 to 6.30	< 6.00	6.30 to 7.00	6.00 to 6.30
C=CC(=O)Nc1cccc(N(C(=O)O[C@@H](C)c2ccc(F)cc2)c2ccnc(Nc3cnn(C)c3)n2)c1 [Compound I-17, (S)-1-(4-fluorophenyl)ethyl (3-acrylamidophenyl)(2-((1-methyl-1H-pyrazol-4-yl)amino)pyrimidin-4-yl)carbamate]	> 7.00	> 7.00	> 7.00	6.30 to 7.00	> 7.00	> 7.00
C=CC(=O)Nc1cccc(N(C(=O)OCc2ccc(F)cn2)c2ccnc(Nc3ccn(C)n3)n2)c1 [Compound I-10, (5-fluoropyridin-2-yl)methyl (3-acrylamidophenyl)(2-((1-methyl-1H-pyrazol-3-yl)amino)pyrimidin-4-yl)carbamate]	> 7.00	6.00 to 6.30	6.30 to 7.00	6.00 to 6.30	6.30 to 7.00	6.00 to 6.30

— patent US10550112B2, “Pyrimidines as EGFR inhibitors and methods of treating disorders” (Dana-Farber Cancer Institute, Inc., priority 2015, dated 2020)
